Results: PMC9186362, “Design and biological evaluation of substituted 5,7-dihydro-6H-indolo[2,3-c]quinolin-6-one as novel selective Haspin inhibitors” (Journal of Enzyme Inhibition and Medicinal Chemistry, 2022)

Tests used:
[1] = biological target: PAK1 (Homo sapiens, UniProt Q13153); test: SelectScreen ZLYTE; type: biochemical; conditions: ATP Km, read-out: Percentage of inhibition
Procedure, shortened: (§1)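 Here 1 μM of inhibitor is profiled against a large kinase collection, and the extent of enzyme inhibition is stated as a percentage.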

[2] = biological target: T1, AURKB (Aurora B) (Homo sapiens, UniProt Q96GD4); test: SelectScreen ZLYTE; type: biochemical; conditions: ATP Km, read-out: Percentage of inhibition
T1 construct: purchased Life Technologies
Procedure, shortened: as §1

[3] = biological target: T2, PLK1 (Homo sapiens, UniProt P53350); test: SelectScreen ZLYTE; type: biochemical; conditions: ATP Km, read-out: Percentage of inhibition
T2 construct: purchased Life Technologies (SelectScreen Whole Panel service)
Procedure, shortened: as §1

[4] = biological target: T3, CSNK1E (CK1 epsilon) (Homo sapiens, UniProt P49674); test: SelectScreen ZLYTE; type: biochemical; conditions: ATP Km, read-out: Percentage of inhibition
T3 construct: purchased Life Technologies (SelectScreen service)
Procedure, shortened: as §1

[5] = biological target: T4, ADRBK2 (GRK3) (Homo sapiens, UniProt P35626); test: SelectScreen ZLYTE; type: biochemical; conditions: ATP Km, read-out: Percentage of inhibition
T4 construct: purchased Life Technologies (SelectScreen Whole Panel)
Procedure, shortened: as §1

[6] = biological target: T5, RET A883F (Homo sapiens, UniProt P07949, A883F); test: SelectScreen ZLYTE; type: biochemical; conditions: ATP Km, read-out: Percentage of inhibition
T5 construct: purchased Life Technologies (SelectScreen service)
Procedure, shortened: as §1

[7] = biological target: T6, ROCK1 (Homo sapiens, UniProt Q13464); test: SelectScreen ZLYTE; type: biochemical; conditions: ATP Km, read-out: Percentage of inhibition
T6 construct: purchased Life Technologies (SelectScreen Whole Panel service)
Procedure, shortened: as §1

[8] = biological target: T7, CAMK4 (CaMKIV) (Homo sapiens, UniProt Q16566); test: SelectScreen ZLYTE; type: biochemical; conditions: ATP Km, read-out: Percentage of inhibition
T7 construct: purchased Life Technologies
Procedure, shortened: as §1

[9] = biological target: T8, HIPK2 (Homo sapiens, UniProt Q9H2X6); test: SelectScreen ZLYTE; type: biochemical; conditions: ATP Km, read-out: Percentage of inhibition
T8 construct: purchased Life Technologies (SelectScreen service)
Procedure, shortened: as §1

[10] = biological target: FGFR4 (Homo sapiens, UniProt P22455); test: SelectScreen ZLYTE; type: biochemical; conditions: ATP Km, read-out: Percentage of inhibition
Procedure, shortened: as §1

[11] = biological target: T9, STK22D (TSSK1) (Homo sapiens, UniProt Q9BXA7); test: SelectScreen ZLYTE; type: biochemical; conditions: ATP Km, read-out: Percentage of inhibition
T9 construct: purchased Life Technologies (SelectScreen Whole Panel service)
Procedure, shortened: as §1

[12] = biological target: PRKCB2 (PKC beta II) (Homo sapiens, UniProt P05771); test: SelectScreen ZLYTE; type: biochemical; conditions: ATP Km, read-out: Percentage of inhibition
Procedure, shortened: as §1

[13] = biological target: PAK4 (Homo sapiens, UniProt O96013); test: SelectScreen ZLYTE; type: biochemical; conditions: ATP Km, read-out: Percentage of inhibition
Procedure, shortened: as §1

[14] = biological target: T10, GSK3A (GSK3 alpha) (Homo sapiens, UniProt P49840); test: SelectScreen ZLYTE; type: biochemical; conditions: ATP Km, read-out: Percentage of inhibition
T10 construct: purchased Life Technologies (SelectScreen service)
Procedure, shortened: as §1

[15] = biological target: T11, BLK (Homo sapiens, UniProt P51451); test: SelectScreen ZLYTE; type: biochemical; conditions: ATP Km, read-out: Percentage of inhibition
T11 construct: purchased Life Technologies (SelectScreen service)
Procedure, shortened: as §1

[16] = biological target: T12, CDK18/cyclin Y (Homo sapiens, UniProt Q07002); test: SelectScreen ZLYTE; type: biochemical; conditions: ATP Km, read-out: Percentage of inhibition
T12 construct: purchased Life Technologies
Procedure, shortened: as §1

[17] = biological target: PRKCD (PKC delta) (Homo sapiens, UniProt Q05655); test: SelectScreen ZLYTE; type: biochemical; conditions: ATP Km, read-out: Percentage of inhibition
Procedure, shortened: as §1

[18] = biological target: CAMK1G (CAMKI gamma) (Homo sapiens, UniProt Q96NX5); test: SelectScreen ZLYTE; type: biochemical; conditions: ATP Km, read-out: Percentage of inhibition
Procedure, shortened: as §1

[19] = biological target: T13, FGFR2 (Homo sapiens, UniProt P21802); test: SelectScreen ZLYTE; type: biochemical; conditions: ATP Km, read-out: Percentage of inhibition
T13 construct: purchased Life Technologies
Procedure, shortened: as §1

[20] = biological target: T14, EGFR (ErbB1) d746-750 (Homo sapiens, UniProt P00533, DEL746-750); test: LanthaScreen Binding - Eu-anti-GST; conditions: read-out: Percentage of inhibition
T14 construct: purchased Life Technologies
Description: (§2) We further evaluated the selectivity profile of compound 55 on a larger panel of kinases (SelectScreen Whole Panel, Life Technologies). The inhibition profile of 55, evaluated at 1 μM, is depicted on a dendrogram on Figure 3 where kinases inhibited by a minimum of 80% are shown. A full list of the kinases tested is shown on Table S1 in supplementary information.

[21] = biological target: T15, ACVRL1 (ALK1) (Homo sapiens, UniProt P37023); test: LanthaScreen Binding - Eu-anti-GST; conditions: read-out: Percentage of inhibition
T15 construct: purchased Life Technologies (SelectScreen service)
Description: as §2

[22] = biological target: TNK2 (ACK) (Homo sapiens, UniProt Q07912); test: LanthaScreen Binding - Eu-anti-GST; conditions: read-out: Percentage of inhibition
Description: as §2

[23] = biological target: T16, ALK C1156Y (Homo sapiens, UniProt Q9UM73, C1156Y); test: LanthaScreen Binding - Eu-anti-GST; conditions: read-out: Percentage of inhibition
T16 construct: purchased Life Technologies
Description: as §2

[24] = biological target: EPHA6 (Homo sapiens, UniProt Q9UF33); test: LanthaScreen Binding - Eu-anti-GST; conditions: read-out: Percentage of inhibition
Description: as §2

[25] = biological target: FGFR3 K650M (Homo sapiens, UniProt P22607, K650M); test: LanthaScreen Binding - Eu-anti-GST; conditions: read-out: Percentage of inhibition
Description: as §2

[26] = biological target: TEK (TIE2) Y1108F (Homo sapiens, UniProt Q02763, Y1108F); test: LanthaScreen Binding - Eu-anti-GST; conditions: read-out: Percentage of inhibition
Description: as §2

[27] = biological target: T17, CDK16 (PCTK1)/cyclin Y (Homo sapiens, UniProt Q00536); test: LanthaScreen Binding - Eu-anti-GST; conditions: read-out: Percentage of inhibition
T17 construct: purchased Life Technologies
Description: as §2

[28] = biological target: T18, CAMKK2 (CaMKK beta) (Homo sapiens, UniProt Q96RR4); test: LanthaScreen Binding - Eu-anti-GST; conditions: read-out: Percentage of inhibition
T18 construct: purchased Life Technologies (SelectScreen Whole Panel service)
Description: as §2

[29] = biological target: T19, ULK2 (Homo sapiens, UniProt Q8IYT8); test: LanthaScreen Binding - Eu-anti-GST; conditions: read-out: Percentage of inhibition
T19 construct: purchased Life Technologies (SelectScreen service)
Description: as §2

[30] = biological target: MLCK (MLCK2) (Homo sapiens, UniProt Q32MK0); test: LanthaScreen Binding - Eu-anti-GST; conditions: read-out: Percentage of inhibition
Description: as §2

[31] = biological target: T20, MAP4K1 (HPK1) (Homo sapiens, UniProt Q92918); test: LanthaScreen Binding - Eu-anti-GST; conditions: read-out: Percentage of inhibition
T20 construct: purchased Life Technologies (SelectScreen service)
Description: as §2

[32] = biological target: T21, MAP3K5 (ASK1) (Homo sapiens, UniProt Q99683); test: LanthaScreen Binding - Eu-anti-GST; conditions: read-out: Percentage of inhibition
T21 construct: purchased Life Technologies
Description: as §2

[33] = biological target: TNIK (Homo sapiens, UniProt Q9UKE5); test: LanthaScreen Binding - Eu-anti-GST; conditions: read-out: Percentage of inhibition
Description: as §2

[34] = biological target: T22, KIT D820E (Homo sapiens, UniProt P10721, D820E); test: LanthaScreen Binding - Eu-anti-GST; conditions: read-out: Percentage of inhibition
T22 construct: purchased Life Technologies (SelectScreen service)
Description: as §2

[35] = biological target: T23, ACVR1 (ALK2) (Homo sapiens, UniProt Q04771); test: LanthaScreen Binding - Eu-anti-GST; conditions: read-out: Percentage of inhibition
T23 construct: purchased Life Technologies (SelectScreen Whole Panel service)
Description: as §2

[36] = biological target: T24, MAP3K14 (NIK) (Homo sapiens, UniProt Q99558); test: LanthaScreen Binding - Eu-anti-GST; conditions: read-out: Percentage of inhibition
T24 construct: purchased Life Technologies (SelectScreen service)
Description: as §2

[37] = biological target: T25, AXL R499C (Homo sapiens, UniProt P30530, R499C); test: LanthaScreen Binding - Eu-anti-GST; conditions: read-out: Percentage of inhibition
T25 construct: purchased Life Technologies
Description: as §2

[38] = biological target: T26, EPHA7 (Homo sapiens, UniProt Q15375); test: LanthaScreen Binding - Eu-anti-GST; conditions: read-out: Percentage of inhibition
T26 construct: purchased Life Technologies (SelectScreen service)
Description: as §2

[39] = biological target: TLK1 (Homo sapiens, UniProt Q9UKI8); test: LanthaScreen Binding - Eu-anti-GST; conditions: read-out: Percentage of inhibition
Description: as §2

T11 sequence (P51451 whole entry): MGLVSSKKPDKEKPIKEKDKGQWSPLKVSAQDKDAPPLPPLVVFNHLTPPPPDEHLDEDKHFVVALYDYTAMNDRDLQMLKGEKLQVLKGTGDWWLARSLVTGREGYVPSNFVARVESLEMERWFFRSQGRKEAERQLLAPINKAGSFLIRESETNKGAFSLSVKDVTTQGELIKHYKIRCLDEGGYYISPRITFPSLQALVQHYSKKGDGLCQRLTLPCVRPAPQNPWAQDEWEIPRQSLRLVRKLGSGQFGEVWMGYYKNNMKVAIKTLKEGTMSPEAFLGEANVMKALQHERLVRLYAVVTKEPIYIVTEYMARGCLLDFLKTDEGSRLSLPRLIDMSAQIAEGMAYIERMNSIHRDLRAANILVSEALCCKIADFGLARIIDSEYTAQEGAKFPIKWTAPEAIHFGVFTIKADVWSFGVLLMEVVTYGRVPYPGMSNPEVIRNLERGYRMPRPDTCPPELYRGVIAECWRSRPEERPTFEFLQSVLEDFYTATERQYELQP
Chain of PRKCB2 (PKC beta II) (P05771 1-673 isoform P05771-2): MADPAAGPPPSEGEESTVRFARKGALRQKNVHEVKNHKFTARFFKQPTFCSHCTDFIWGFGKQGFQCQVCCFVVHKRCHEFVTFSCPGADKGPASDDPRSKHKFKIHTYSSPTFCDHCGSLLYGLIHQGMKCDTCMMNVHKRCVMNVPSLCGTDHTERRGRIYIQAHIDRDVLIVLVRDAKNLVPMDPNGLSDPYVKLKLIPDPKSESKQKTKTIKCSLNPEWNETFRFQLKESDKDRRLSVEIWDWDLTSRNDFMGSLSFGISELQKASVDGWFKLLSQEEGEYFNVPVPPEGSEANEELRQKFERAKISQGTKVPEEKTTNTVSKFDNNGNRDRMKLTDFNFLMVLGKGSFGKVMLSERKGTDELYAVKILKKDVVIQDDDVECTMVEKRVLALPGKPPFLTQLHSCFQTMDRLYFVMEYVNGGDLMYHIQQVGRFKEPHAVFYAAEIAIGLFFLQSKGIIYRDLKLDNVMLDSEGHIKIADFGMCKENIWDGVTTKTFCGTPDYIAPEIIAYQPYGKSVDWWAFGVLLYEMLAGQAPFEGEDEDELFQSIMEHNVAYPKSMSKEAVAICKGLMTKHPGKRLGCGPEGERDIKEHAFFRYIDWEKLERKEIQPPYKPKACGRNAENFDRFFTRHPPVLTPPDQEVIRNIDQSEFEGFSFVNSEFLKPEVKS
T25 sequence (P30530 26-894 R499C): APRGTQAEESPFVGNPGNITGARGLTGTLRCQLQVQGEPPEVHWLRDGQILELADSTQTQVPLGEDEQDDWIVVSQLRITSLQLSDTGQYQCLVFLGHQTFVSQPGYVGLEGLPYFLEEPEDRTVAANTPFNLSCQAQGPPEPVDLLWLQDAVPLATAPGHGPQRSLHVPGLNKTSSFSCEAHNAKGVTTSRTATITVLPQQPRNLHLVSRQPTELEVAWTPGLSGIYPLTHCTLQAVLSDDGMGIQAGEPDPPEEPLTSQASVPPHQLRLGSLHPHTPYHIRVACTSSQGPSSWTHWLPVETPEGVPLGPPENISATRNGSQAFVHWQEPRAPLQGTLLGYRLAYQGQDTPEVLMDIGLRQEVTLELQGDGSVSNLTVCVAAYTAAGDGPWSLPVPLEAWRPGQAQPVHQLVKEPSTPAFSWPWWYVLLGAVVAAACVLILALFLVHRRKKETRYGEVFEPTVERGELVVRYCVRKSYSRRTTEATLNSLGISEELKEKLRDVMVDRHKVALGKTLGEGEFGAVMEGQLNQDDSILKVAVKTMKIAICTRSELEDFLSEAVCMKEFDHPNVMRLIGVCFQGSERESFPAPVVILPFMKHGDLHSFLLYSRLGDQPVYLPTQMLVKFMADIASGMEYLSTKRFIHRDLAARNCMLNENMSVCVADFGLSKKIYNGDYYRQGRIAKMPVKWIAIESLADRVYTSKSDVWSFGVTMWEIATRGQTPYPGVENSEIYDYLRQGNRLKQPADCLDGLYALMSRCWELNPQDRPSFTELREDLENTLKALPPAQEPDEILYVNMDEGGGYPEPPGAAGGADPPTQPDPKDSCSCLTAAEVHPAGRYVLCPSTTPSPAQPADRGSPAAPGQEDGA
Chain of TEK (TIE2) Y1108F (Q02763 23-1124 Y1108F): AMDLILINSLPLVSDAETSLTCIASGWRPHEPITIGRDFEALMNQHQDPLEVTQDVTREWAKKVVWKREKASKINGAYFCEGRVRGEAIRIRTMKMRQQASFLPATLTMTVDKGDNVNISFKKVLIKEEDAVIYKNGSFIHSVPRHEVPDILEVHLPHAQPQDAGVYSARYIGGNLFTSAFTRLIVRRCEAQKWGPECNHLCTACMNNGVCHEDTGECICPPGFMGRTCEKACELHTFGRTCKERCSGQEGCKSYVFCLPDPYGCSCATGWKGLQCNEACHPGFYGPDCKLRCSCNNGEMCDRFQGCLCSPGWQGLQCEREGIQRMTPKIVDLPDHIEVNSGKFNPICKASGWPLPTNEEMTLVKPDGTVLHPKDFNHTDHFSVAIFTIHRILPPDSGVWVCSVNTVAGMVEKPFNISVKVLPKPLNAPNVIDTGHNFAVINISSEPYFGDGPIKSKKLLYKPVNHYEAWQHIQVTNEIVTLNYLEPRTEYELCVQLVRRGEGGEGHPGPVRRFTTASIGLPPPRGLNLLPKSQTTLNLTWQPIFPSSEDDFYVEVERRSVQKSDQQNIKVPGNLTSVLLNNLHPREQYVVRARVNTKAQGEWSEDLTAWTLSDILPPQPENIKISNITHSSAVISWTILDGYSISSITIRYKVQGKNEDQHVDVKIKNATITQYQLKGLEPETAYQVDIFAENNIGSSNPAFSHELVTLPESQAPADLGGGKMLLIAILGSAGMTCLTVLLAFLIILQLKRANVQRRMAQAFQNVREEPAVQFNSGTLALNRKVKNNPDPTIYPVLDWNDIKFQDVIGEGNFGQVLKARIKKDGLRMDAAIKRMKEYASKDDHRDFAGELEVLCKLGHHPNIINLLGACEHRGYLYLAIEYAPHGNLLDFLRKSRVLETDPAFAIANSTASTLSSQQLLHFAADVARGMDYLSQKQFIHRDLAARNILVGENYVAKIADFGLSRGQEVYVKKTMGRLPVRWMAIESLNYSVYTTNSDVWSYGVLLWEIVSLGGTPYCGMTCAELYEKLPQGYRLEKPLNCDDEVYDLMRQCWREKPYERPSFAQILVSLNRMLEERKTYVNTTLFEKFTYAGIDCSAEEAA
Chain of EPHA6 (Q9UF33 23-1036): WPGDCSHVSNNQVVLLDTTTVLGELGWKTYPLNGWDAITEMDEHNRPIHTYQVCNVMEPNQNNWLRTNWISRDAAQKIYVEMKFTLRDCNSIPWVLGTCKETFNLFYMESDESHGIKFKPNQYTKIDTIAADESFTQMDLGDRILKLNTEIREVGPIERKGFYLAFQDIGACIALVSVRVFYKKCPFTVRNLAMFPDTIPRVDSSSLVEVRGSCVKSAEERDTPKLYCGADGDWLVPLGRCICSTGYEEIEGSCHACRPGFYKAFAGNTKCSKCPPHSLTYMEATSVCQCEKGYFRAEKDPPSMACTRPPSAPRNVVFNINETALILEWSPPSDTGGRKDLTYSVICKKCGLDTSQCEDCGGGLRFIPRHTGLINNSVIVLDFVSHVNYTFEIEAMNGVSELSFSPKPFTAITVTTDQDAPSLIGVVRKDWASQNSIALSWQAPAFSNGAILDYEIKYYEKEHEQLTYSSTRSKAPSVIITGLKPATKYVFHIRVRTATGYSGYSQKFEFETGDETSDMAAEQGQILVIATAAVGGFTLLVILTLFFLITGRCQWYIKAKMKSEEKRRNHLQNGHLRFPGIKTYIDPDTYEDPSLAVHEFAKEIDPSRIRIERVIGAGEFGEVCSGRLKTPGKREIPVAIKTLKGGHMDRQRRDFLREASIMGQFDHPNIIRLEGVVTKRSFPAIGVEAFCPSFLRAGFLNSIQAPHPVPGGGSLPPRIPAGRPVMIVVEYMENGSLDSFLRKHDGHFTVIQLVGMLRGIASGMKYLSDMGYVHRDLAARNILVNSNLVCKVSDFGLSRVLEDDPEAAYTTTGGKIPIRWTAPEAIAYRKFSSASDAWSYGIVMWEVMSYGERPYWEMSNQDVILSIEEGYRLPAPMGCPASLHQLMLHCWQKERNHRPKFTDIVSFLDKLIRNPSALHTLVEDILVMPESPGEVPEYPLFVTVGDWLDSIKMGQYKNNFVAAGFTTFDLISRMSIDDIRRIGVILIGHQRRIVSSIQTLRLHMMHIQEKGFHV
T18 sequence (Q96RR4 whole entry): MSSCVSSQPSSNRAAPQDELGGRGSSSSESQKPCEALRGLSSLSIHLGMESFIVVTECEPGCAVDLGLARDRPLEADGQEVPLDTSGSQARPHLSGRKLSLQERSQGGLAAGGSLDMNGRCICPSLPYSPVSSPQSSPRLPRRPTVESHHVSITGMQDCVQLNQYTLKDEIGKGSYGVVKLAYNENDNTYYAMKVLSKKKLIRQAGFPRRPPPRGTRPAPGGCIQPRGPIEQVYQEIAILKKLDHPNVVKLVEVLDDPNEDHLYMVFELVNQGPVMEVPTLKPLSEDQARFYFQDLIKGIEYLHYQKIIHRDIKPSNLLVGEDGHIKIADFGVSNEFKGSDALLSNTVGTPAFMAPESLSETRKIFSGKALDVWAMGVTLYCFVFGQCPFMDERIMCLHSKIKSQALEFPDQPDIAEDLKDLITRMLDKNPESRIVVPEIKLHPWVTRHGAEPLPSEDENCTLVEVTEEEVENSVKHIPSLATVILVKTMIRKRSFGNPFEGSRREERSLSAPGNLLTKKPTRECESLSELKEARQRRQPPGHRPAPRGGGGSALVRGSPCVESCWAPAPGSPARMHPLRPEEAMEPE

## COc1ccc2[nH]c3c(=O)[nH]c4ccc(O)cc4c3c2c1 [Compound 55, 2-Hydroxy-10-methoxy-5,7-dihydro-6H-indolo[2,3-c]quinolin-6-one]
[1]
  inhibition at 1 µM: 6%
[2]
  inhibition at 1 µM: 41%
[3]
  inhibition at 1 µM: 10%
[4]
  inhibition at 1 µM: 73%
[5]
  inhibition at 1 µM: 0%
[6]
  inhibition at 1 µM: 85%
[7]
  inhibition at 1 µM: 11%
[8]
  inhibition at 1 µM: 41%
[9]
  inhibition at 1 µM: 74%
[10]
  inhibition at 1 µM: 22%
[11]
  inhibition at 1 µM: 19%
[12]
  inhibition at 1 µM: 13%
[13]
  inhibition at 1 µM: 15%
[14]
  inhibition at 1 µM: 82%
[15]
  inhibition at 1 µM: 86%
[16]
  inhibition at 1 µM: 36%
[17]
  inhibition at 1 µM: 7%
[18]
  inhibition at 1 µM: 14%
[19]
  inhibition at 1 µM: 42%
[20]
  inhibition at 1 µM: 34%
[21]
  inhibition at 1 µM: 25%
[22]
  inhibition at 1 µM: 15%
[23]
  inhibition at 1 µM: 34%
[24]
  inhibition at 1 µM: 21%
[25]
  inhibition at 1 µM: 67%
[26]
  inhibition at 1 µM: 6%
[27]
  inhibition at 1 µM: 38%
[28]
  inhibition at 1 µM: 10%
[29]
  inhibition at 1 µM: 25%
[30]
  inhibition at 1 µM: 62%
[31]
  inhibition at 1 µM: 81%
[32]
  inhibition at 1 µM: 28%
[33]
  inhibition at 1 µM: 61%
[34]
  inhibition at 1 µM: 24%
[35]
  inhibition at 1 µM: 15%
[36]
  inhibition at 1 µM: 79%
[37]
  inhibition at 1 µM: 35%
[38]
  inhibition at 1 µM: 23%
[39]
  inhibition at 1 µM: 68%
